The test system of series [1] is H. pylori ATCC 700392. The series is described as follows: MIC/MBC by broth microdilution, strain ATCC 700392. In kind it is cell-based. Particulars: Helicobacter pylori, ATCC700392.
For series [2], the system named is H. pylori ATCC 700684 (clarithromycin resistant). The series is described as follows: MIC/MBC by broth microdilution, strain ATCC 700684 (CLR-R). To be noted: Helicobacter pylori. In kind it is cell-based.
The test system of series [3] is H. pylori ATCC 43504 (metronidazole-resistant). The series is described as follows: MIC/MBC by broth microdilution, strain ATCC 43504 (MTZ-R). Particulars: Helicobacter pylori. In kind it is cell-based. On the technique in general: Broth dilution looks for growth in wells or tubes with falling amounts of substance.
Series [4] has as its system Mouse. To be noted: ref PubChem; cited from earlier work.
Series [5] has as its system H. pylori strain ATCC 700684. The series is described as follows: Time-kill kinetics assay. Particulars: 2 × MIC. Format: cell-based, Helicobacter pylori. On the procedure:
Time–kill curves for selected DHP drugs were determined using the H. pylori strain ATCC 700684 [17]. […] DMSO instead of drugs was included as control. Colony forming units (CFUs) were determined after 4, 8, and 24 h of drug exposition by culturing on Blood Agar Base No.2 supplemented with 8% defibrinated horse blood for 72 h under microaerobic conditions. Each determination was performed twice in triplicate and the results were presented as log10 CFU/mL versus incubation time. Statistical analysis was performed using the Mann–Whitney U test. A p value smaller than 0.05 was considered significant.

For series [6], the system named is H. pylori essential response regulator HsrA. Details: method as in PMID 31383920. Particulars: binds native state of HsrA; cited from earlier work.
Series [7] deals with T1, H. pylori HsrA response regulator (Helicobacter pylori, UniProt O25684). Format: biochemical. To be noted: EMSA. On the procedure:
The in vitro biological activity of the H. pylori HsrA response regulator and its potential inhibition by DHP drugs were assessed by electrophoretic mobility shift assay (EMSA) as previously described. Briefly, 120 ng of target DNA (promoter region of the H. pylori porGDAB operon) was mixed with 6 µM of recombinant HsrA [17] in the presence of increasing concentrations (0.1 to 2 mM) of selected DHP drugs. Mixtures of DNA and protein in a 20 μL reaction volume containing 10 mM bis-Tris (pH 7.5), 40 mM KCl, 100 mg/L BSA, 1 mM DTT and 5% glycerol were incubated at room temperature for 20 min and then separated by 6% native polyacrylamide gel electrophoresis. A 150 bp fragment of the Anabaena sp. PCC 7120 gene pkn22 was included as non-specific competitor DNA in all assays. EMSA gels were stained with SYBR Safe® (Thermo Fisher Scientific, Bothell, WA, USA) and analyzed using the Bio-Rad Gel Doc 2000 imaging system.
For orientation: Mobility shift assays separate free from complexed probe on a gel.

Series [8] deals with T1, H. pylori HsrA response regulator. As to the kind of experiment: biochemical. In kind it is binding. Particulars: ITC, 25 °C, pH 8. As to the method:
Thermodynamic parameters of the molecular interaction between HsrA and its DHP-class inhibitors were analyzed by isothermal titration calorimetry (ITC) using an AutoiTC200 calorimeter (MicroCal, Malvern Instruments, Malvern, Worcestershire, UK). A solution of 20 µM of the protein in 50 mM Tris-HCl [pH 8], 150 mM NaCl, 10% glycerol, 1% DMSO was titrated with 200 µM of the corresponding ligand (DHP) dissolved in the same buffer at 25 °C. A total of 19 injections of 2 μL was added sequentially to the sample cell after 150 s spacing to ensure that the thermal power returned to the baseline before the next injection. Dissociation constants and binding enthalpies were calculated by non-linear least squares regression data analysis using the software package Origin 7.0 (OriginLab, Northampton, MA, USA).

Molecules are shown by their SMILES. Converted amounts (≈) assume the structure as drawn.

A word on the MBC: it is the lowest tested concentration that kills the bacteria rather than only halting them. The MIC is the least concentration at which growth counts as inhibited. Lower therefore signals greater potency. As a reminder, the Kd is the equilibrium constant for the complex coming apart.

T1 sequence (O25684 entry or part of it): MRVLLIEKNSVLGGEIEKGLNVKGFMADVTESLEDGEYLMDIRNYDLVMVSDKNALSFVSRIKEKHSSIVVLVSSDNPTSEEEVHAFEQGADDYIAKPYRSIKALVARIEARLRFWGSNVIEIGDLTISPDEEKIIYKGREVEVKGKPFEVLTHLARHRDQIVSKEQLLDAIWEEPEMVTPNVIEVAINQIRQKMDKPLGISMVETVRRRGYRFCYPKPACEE

Regarding `COC(=O)C1=C(C)NC(C)=C(C(=O)OCCN(C)Cc2ccccc2)C1c1cccc([N+](=O)[O-])c1` (stereo not shown) [Nicardipine], the MBC in series [1] (ATCC 700392), in series [2] (ATCC700684) and in series [3] (ATCC43504) was 8 µg/mL (≈ 16.7 µM) throughout. Moreover, the MIC in series [1] (ATCC 700392, 72 h) was determined as 8 µg/mL (≈ 16.7 µM); in series [2] (ATCC700684, 72 h), 8 µg/mL (≈ 16.7 µM); in series [3] (ATCC43504, 72 h), 8 µg/mL (≈ 16.7 µM). Besides, in series [4], the “Mouse LD50 (mg/kg, oral)” value is 305 mg/kg. The “Decline in bacterial counts (time-kill kinetics) compared to other DHPs” value in series [5] is “significantly faster”. For the same compound, in series [5] (4 h), the “Killing effect after 4 h of exposition” value is on record as “completely lethal”. In addition, in series [6], the “Effect on HsrA conformational stability (thermal shift)” value is “increased the protein conformational stability”. In addition, the “Inhibition of the DNA binding activity of HsrA” value in series [7] (6 µM HsrA, 120 ng target promoter, 0.1 to 2 mM DHP) is reported as “noticeably inhibited”. Besides, the “Inhibition of HsrA activity at 100 μM” value in series [7] (100 μM drug, 6 μM HsrA) is “partially inhibited”. In addition, in series [8] (absolute error 0.06), the “n (binding stoichiometry)” value was found to be 0.72. Further, in series [8] (absolute error 0.2 kcal/mol), the ΔG was -7.5 kcal/mol. In series [8] (absolute error 0.4 kcal/mol), this compound came in with a ΔH of -2.0 kcal/mol. The dissociation constant Kd in series [8] (relative error 40%, read-out: Kd) was determined as 3 µM.

The record behind these values is article PMC6969910, “Repurposing Dihydropyridines for Treatment of Helicobacter pylori Infection” (Pharmaceutics, 2019).
